Publication PMC5586252, “PP2A-B′ holoenzyme substrate recognition, regulation and role in cytokinesis” (Cell Discovery, 2017)
pKd: −log10 of the molar value. Entries after “also recorded” stand apart in the source; their conditions may differ. Where no end group is shown, it is not given here.

Columns and labels:
[1] = system: PP2Ac–Cyk4 interaction in HeLa cells; assay: Co-immunoprecipitation of FLAG-Cyk4 with PP2Ac in synchronized cells; format: cell-based; conditions: 200 nM for 30 min; HeLa cells with FLAG-Cyk4 and V5-CIP2A, synchronized with monastrol, 0–90 min after its removal
Procedure: Thirty-six hours after HeLa cells were transfected with FLAG-Cyk4 and V5-CIP2A expression vectors, the transfected cells were arrested at […] with 100 μM monastrol for 14 h, followed by incubation with 200 nM BI-2536 or solvent control for 30 min. Cells were collected at the indicated time points after removal of monastrol to allow cell cycle progression. The interaction between FLAG-Cyk4 and PP2Ac were determined by co-immunoprecipitation using antibody that specifically recognizes FLAG-tag. PP2Ac associated with FLAG-Cyk4 and from cell lysate input were determined by western blot using customer-made antibody against PP2Ac.

B′γ1 = molecular target: T1, B′γ1 (Homo sapiens, UniProt Q13362); assay: Isothermal titration calorimetry of synthetic peptides; format: binding; conditions: for interaction with B′γ1 by ITC (in words): phospho-peptides with pS/pT at position 6 and negatively charged residues at positions 2, 7 and 8; for pKd: ITC, 1 mM peptide titrated to 20–50 μM B′γ1, 20 mM HEPES pH 7.5, 200 mM NaCl
T1 construct: Expression and purification of full-length PP2A Aα, Cα, B′γ1 and PR70 (B″ family); made in house
Procedure: The binding affinities between B′γ1 and synthetic CIP2A and Cyk4 peptides (GenScript, Piscataway, NJ, USA) were determined by titrating 1 mM of peptides to 20–50 μM B′γ1 in 20 mM HEPES (pH 7.5), 200 mM NaCl using VP-ITC microcalorimeter (MicroCal, Malvern Instrument, Malvern, UK). The data were fitted with Origin 7.0 (MicroCal, Malvern Instrument, Malvern, UK) to calculate the equilibrium association constant.

T1 sequence (Q13362 whole entry, looked up): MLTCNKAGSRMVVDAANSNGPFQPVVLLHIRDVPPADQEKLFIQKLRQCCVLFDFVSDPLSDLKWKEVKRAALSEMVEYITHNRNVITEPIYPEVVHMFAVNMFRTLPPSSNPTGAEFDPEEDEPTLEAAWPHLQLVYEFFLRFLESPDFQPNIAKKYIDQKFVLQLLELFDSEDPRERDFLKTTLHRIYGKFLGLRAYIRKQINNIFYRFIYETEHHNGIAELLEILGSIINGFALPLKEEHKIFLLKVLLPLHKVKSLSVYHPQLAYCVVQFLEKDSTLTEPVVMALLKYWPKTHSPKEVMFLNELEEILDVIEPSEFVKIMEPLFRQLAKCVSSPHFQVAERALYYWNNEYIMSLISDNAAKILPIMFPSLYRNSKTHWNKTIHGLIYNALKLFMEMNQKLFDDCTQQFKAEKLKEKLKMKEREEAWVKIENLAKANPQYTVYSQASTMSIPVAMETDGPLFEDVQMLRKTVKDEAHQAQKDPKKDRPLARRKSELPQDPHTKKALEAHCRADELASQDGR

Row | pKd (B′γ1) | Compound | interaction with B′γ1 by ITC (in words) (B′γ1) | also measured
1 | – | CC[C@@H]1C(=O)N(C)c2cnc(Nc3ccc(C(=O)NC4CCN(C)CC4)cc3OC)nc2N1C1CCCC1 [BI-2536] | – | effect on interaction between PP2Ac and Cyk4 (co-IP) [1]: blocked and delayed the interaction between PP2Ac and Cyk4
2 | – | LEPIRpSEE | no binding; also recorded: no interaction could be detected | –
3 | – | LEPIRpTEE | no binding; also recorded: no interaction could be detected | –
4 | – | LEPVRpSEE | no binding; also recorded: no interaction could be detected | –
5 | 5.80 | NKRLSTIDEEGS [Cyk4 peptide S149E] | – | –
6 | 5.14 | NRKLESVAEEHE [CIP2A peptide] | – | –
